The source of these data is patent US20220362232A1, “TOPICAL COMPOSITIONS COMPRISING A MACROLIDE IMMUNOSUPPRESSANT” (BAUSCH HEALTH IRELAND LIMITED, priority 2020, published 2022).

A short description of data set [1]: Solubility and stability in alkyl diesters of aliphatic dicarboxylic acids. Type of data set: physicochemical.
The conditions of data set [2]: cited from earlier work.

Turning to `CC[C@@H]1/C=C(\C)C[C@H](C)C[C@H](OC)[C@H]2O[C@@](O)(C(=O)C(=O)N3CCCC[C@H]3C(=O)O[C@H](/C(C)=C/[C@@H]3CC[C@H](Cl)[C@H](OC)C3)[C@H](C)[C@@H](O)CC1=O)[C@H](C)C[C@@H]2OC` [Pimecrolimus], the “Solubility and stability in alkyl diesters of aliphatic dicarboxylic acids” value (shortened to “Solubility and stability”) in data set [1] was “particularly soluble and stable”. For the same compound, in data set [2] (methanol and ethanol), the “Solubility in methanol and ethanol” value is recorded as “soluble”. For the same compound, the Solubility in water result in data set [2] was “insoluble”.

Take `CO[C@H]1C[C@@H]2CC[C@@H](C)[C@@](O)(O2)C(=O)C(=O)N2CCCC[C@H]2C(=O)O[C@H]([C@H](C)C[C@@H]2CC[C@@H](O)[C@H](OC)C2)CC(=O)[C@H](C)/C=C(\C)[C@@H](O)[C@@H](OC)C(=O)[C@H](C)C[C@H](C)/C=C/C=C/C=C/1C` [Sirolimus]: the “Solubility and stability” value in data set [1] was “particularly soluble and stable”. In data set [2], the “Solubility in benzyl alcohol, chloroform, acetone, and acetonitrile” value is “soluble”; the Solubility in water entry is on record as “insoluble”.

Turning to `C=CC[C@@H]1/C=C(\C)C[C@H](C)C[C@H](OC)[C@H]2O[C@@](O)(C(=O)C(=O)N3CCCC[C@H]3C(=O)O[C@H](/C(C)=C/[C@@H]3CC[C@@H](O)[C@H](OC)C3)[C@H](C)[C@@H](O)CC1=O)[C@H](C)C[C@@H]2OC` [Tacrolimus], the “Solubility and stability” value in data set [1] was “particularly soluble and stable”. Besides, in data set [2], the “Solubility in benzyl alcohol, chloroform, acetone, and acetonitrile” value is on record as “soluble”; the Solubility in water entry is “insoluble”.
